Assay results reported in ChEMBL document CHEMBL6120994, “Unravelling the potential of natural chelating agents in the control of Staphylococcus aureus and Pseudomonas aeruginosa biofilms” (Eur J Med Chem, 2025).
Activity calls are given as the source filed them. The calls are words filed in the database; no cut-off is given here.

Experiments:
Pseudomonas aeruginosa [1] = assay: Antibiofilm activity against Pseudomonas aeruginosa ATCC 10145 assessed as reduction in biomass production at 500 to 1000 ug/ml measured after 24 hrs by crystal violet staining method; type: functional, organism-based; settings: dose 500-1000 µg/ml
Pseudomonas aeruginosa [2] = assay: Antibiofilm activity against Pseudomonas aeruginosa ATCC 10145 assessed as reduction in biofilm cells culturability by measuring reduction in number of CFU at 500 to 1000 ug/ml measured after 24 hrs by visual counting method; type: functional, organism-based; settings: dose 500-1000 µg/ml

**Q.** What does the source list for O=c1cc(CO)occ1O [KOJIC ACID]?
**A.** Activity (Pseudomonas aeruginosa [1]): inactive; Activity (Pseudomonas aeruginosa [2]): inactive
